ChEMBL document CHEMBL1201862, “PubChem BioAssay data set” (2004)
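Dose response: 5 concentrations. Exposure: 48 h. Format: 96-well plates. Endpoint: linear interpolation; highest concentration if not reached. GI50: concentration for 50% inhibition of growth.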 The source made the active and inactive calls. Cut-off read from the data, not from the text of the source: active = GI50 up to about 1.1 µM and inactive = higher.

Experiments:
Test in all cases: NCI tumour cell line growth inhibition, 48 h
[1] = system: A498
[2] = system: HCT-116
[3] = system: HOP-62
[4] = system: OVCAR-4
[5] = system: OVCAR-8
[6] = system: RXF 393
[7] = system: SF-539
[8] = system: SK-MEL-28
[9] = system: SK-MEL-2
[10] = system: SNB-19
[11] = system: SR
[12] = system: SW-620
[13] = system: U-251
[14] = system: UACC-257
[15] = system: UO-31
[16] = system: HOP-92
[17] = system: SNB-75
[18] = system: IGROV-1

| Structure (SMILES) | GI50 [1] | GI50 [2] | GI50 [3] | GI50 [4] | GI50 [5] | GI50 [6] | GI50 [7] | GI50 [8] | GI50 [9] | GI50 [10] | GI50 [11] | GI50 [12] | GI50 [13] | GI50 [14] | GI50 [15] | GI50 [16] | GI50 [17] | GI50 [18] |
| --- | --- | --- | --- | --- | --- | --- | --- | --- | --- | --- | --- | --- | --- | --- | --- | --- | --- | --- |
| O=C(O)CCCSC(=O)Nc1ccc(/N=N/c2ccccc2)cc1 | > 100 µM (inactive) | > 100 µM (inactive) | > 100 µM (inactive) | > 100 µM (inactive) | > 100 µM (inactive) | > 100 µM (inactive) | > 100 µM (inactive) | > 100 µM (inactive) | > 100 µM (inactive) | > 100 µM (inactive) | > 100 µM (inactive) | > 100 µM (inactive) | > 100 µM (inactive) | > 100 µM (inactive) | > 100 µM (inactive) | – | – | – |
| Oc1ccccc1-c1cnnc(-c2ccccc2O)c1 | – | 20.1 µM (inactive) | – | 29.9 µM (inactive) | 22.6 µM (inactive) | 20.3 µM (inactive) | 33.9 µM (inactive) | 35.6 µM (inactive) | 20.5 µM (inactive) | – | 19 µM (inactive) | 37.7 µM (inactive) | – | 25.1 µM (inactive) | 19.7 µM (inactive) | 24 µM (inactive) | 20.4 µM (inactive) | – |
| CCCCCCCCCCCCCC(=O)OCC1OC(n2cc(F)c(=O)[nH]c2=O)C(N)C(OC(=O)CCCCCCCCCCCCC)C1O (stereo not drawn) | > 100 µM (inactive) | > 100 µM (inactive) | > 100 µM (inactive) | > 100 µM (inactive) | > 100 µM (inactive) | > 100 µM (inactive) | 42.7 µM (inactive) | > 100 µM (inactive) | > 100 µM (inactive) | > 100 µM (inactive) | > 100 µM (inactive) | > 100 µM (inactive) | > 100 µM (inactive) | > 100 µM (inactive) | > 100 µM (inactive) | > 100 µM (inactive) | > 100 µM (inactive) | – |
| CCOC1=C2C(C)(CCC3[C@@]4(C)C=CC(=O)C(C)(C)C4CC(O)[C@@]23C)C(c2ccoc2)C1=O (stereo partly drawn) | 17.3 µM (inactive) | 11.3 µM (inactive) | 20.5 µM (inactive) | 17.2 µM (inactive) | 18.3 µM (inactive) | 16.1 µM (inactive) | 17.6 µM (inactive) | 15.6 µM (inactive) | 19.2 µM (inactive) | 27.2 µM (inactive) | – | 17.2 µM (inactive) | 18 µM (inactive) | 23.7 µM (inactive) | 14.5 µM (inactive) | 17.9 µM (inactive) | 54.3 µM (inactive) | 12.4 µM (inactive) |
| COc1cccc(NC(=O)c2c(N)n[nH]c2SC)c1 | > 100 µM (inactive) | > 100 µM (inactive) | > 100 µM (inactive) | > 100 µM (inactive) | > 100 µM (inactive) | > 100 µM (inactive) | > 100 µM (inactive) | > 100 µM (inactive) | > 100 µM (inactive) | > 100 µM (inactive) | – | > 100 µM (inactive) | > 100 µM (inactive) | > 100 µM (inactive) | – | > 100 µM (inactive) | > 100 µM (inactive) | > 100 µM (inactive) |
| Cc1cc(Cl)cc2c1NC(=O)C2(O)CC(=O)c1ccc(F)cc1 (stereo not drawn) | – | 56.4 µM (inactive) | > 100 µM (inactive) | 41.9 µM (inactive) | 80.7 µM (inactive) | 19.7 µM (inactive) | 40.9 µM (inactive) | 37.2 µM (inactive) | 73.3 µM (inactive) | > 100 µM (inactive) | – | 94 µM (inactive) | 39 µM (inactive) | 37.3 µM (inactive) | 47.6 µM (inactive) | > 100 µM (inactive) | 26.5 µM (inactive) | 58.9 µM (inactive) |
| O=C(/C=C/c1ccccc1O)c1ccccc1O | > 100 µM (inactive) | 78 µM (inactive) | > 100 µM (inactive) | > 100 µM (inactive) | > 100 µM (inactive) | > 100 µM (inactive) | > 100 µM (inactive) | > 100 µM (inactive) | 80.9 µM (inactive) | > 100 µM (inactive) | – | > 100 µM (inactive) | > 100 µM (inactive) | > 100 µM (inactive) | > 100 µM (inactive) | 46.7 µM (inactive) | > 100 µM (inactive) | > 100 µM (inactive) |
| CC1(C)OC2C(CCP(=O)(O)O)OC(c3nc(C(N)=O)cs3)C2O1 (stereo not drawn) | > 100 µM (inactive) | > 100 µM (inactive) | – | > 100 µM (inactive) | > 100 µM (inactive) | > 100 µM (inactive) | – | > 100 µM (inactive) | > 100 µM (inactive) | > 100 µM (inactive) | – | > 100 µM (inactive) | > 100 µM (inactive) | > 100 µM (inactive) | > 100 µM (inactive) | > 100 µM (inactive) | > 100 µM (inactive) | > 100 µM (inactive) |
| COc1ccc(NC(=O)/C(Cc2nc3ccccc3nc2O)=N\O)c(OC)c1 | > 100 µM (inactive) | > 100 µM (inactive) | > 100 µM (inactive) | > 100 µM (inactive) | > 100 µM (inactive) | > 100 µM (inactive) | > 100 µM (inactive) | > 100 µM (inactive) | – | > 100 µM (inactive) | > 100 µM (inactive) | > 100 µM (inactive) | > 100 µM (inactive) | > 100 µM (inactive) | > 100 µM (inactive) | > 100 µM (inactive) | > 100 µM (inactive) | > 100 µM (inactive) |
| CN(C)CCC(=O)/C=C\c1ccccc1 | 20 µM (inactive) | 15.3 µM (inactive) | 67.3 µM (inactive) | 19.1 µM (inactive) | 18.1 µM (inactive) | 15.6 µM (inactive) | 16.8 µM (inactive) | 16.9 µM (inactive) | – | 39.2 µM (inactive) | 15 µM (inactive) | 18.5 µM (inactive) | 17.5 µM (inactive) | 17.3 µM (inactive) | 17.6 µM (inactive) | 16.6 µM (inactive) | 60.1 µM (inactive) | 24.5 µM (inactive) |
| COC(=O)C[C@H]1CCC2(OCCO2)[C@]1(C)C(=O)OC | > 100 µM (inactive) | > 100 µM (inactive) | > 100 µM (inactive) | > 100 µM (inactive) | > 100 µM (inactive) | > 100 µM (inactive) | > 100 µM (inactive) | > 100 µM (inactive) | > 100 µM (inactive) | > 100 µM (inactive) | – | > 100 µM (inactive) | > 100 µM (inactive) | > 100 µM (inactive) | > 100 µM (inactive) | > 100 µM (inactive) | > 100 µM (inactive) | > 100 µM (inactive) |
| C[C@]12CC[C@H](OC(=O)Cc3ccc(N(CCCl)CCCl)cc3)CC1CC[C@@H]1C2CC[C@]2(C)NC(=O)CCC12 (stereo partly drawn) | 18.9 µM (inactive) | 5.11 µM (inactive) | > 10 µM (inactive) | 12.2 µM (inactive) | > 10 µM (inactive) | 7.74 µM (inactive) | 3.5 µM (inactive) | 15 µM (inactive) | 25.5 µM (inactive) | 13 µM (inactive) | – | 9.33 µM (inactive) | 11.2 µM (inactive) | 13.2 µM (inactive) | 29.3 µM (inactive) | 15.6 µM (inactive) | 10.1 µM (inactive) | 14 µM (inactive) |
| Cc1cc(C)c2[s+]snc2c1 | 37.7 µM (inactive) | 39.3 µM (inactive) | 82.4 µM (inactive) | > 100 µM (inactive) | 33.7 µM (inactive) | 37.4 µM (inactive) | 70 µM (inactive) | 62.1 µM (inactive) | 75 µM (inactive) | > 100 µM (inactive) | 23.8 µM (inactive) | 37.6 µM (inactive) | 48.9 µM (inactive) | 72.3 µM (inactive) | 39.5 µM (inactive) | – | > 100 µM (inactive) | > 100 µM (inactive) |
| CCOP(=O)(OCC)/C(C#N)=C\c1ccsc1 | – | > 100 µM (inactive) | > 100 µM (inactive) | > 100 µM (inactive) | > 100 µM (inactive) | > 100 µM (inactive) | > 100 µM (inactive) | > 100 µM (inactive) | > 100 µM (inactive) | > 100 µM (inactive) | – | > 100 µM (inactive) | > 100 µM (inactive) | > 100 µM (inactive) | > 100 µM (inactive) | > 100 µM (inactive) | > 100 µM (inactive) | – |
| CC(C)(CN1CCCCC1)C(=O)/C=C/c1ccc(Br)cc1 | 2.58 µM (inactive) | 2.77 µM (inactive) | 3.85 µM (inactive) | 4.31 µM (inactive) | 2.39 µM (inactive) | 1.35 µM (inactive) | 2.09 µM (inactive) | 3.99 µM (inactive) | 3.69 µM (inactive) | 2.01 µM (inactive) | 2.45 µM (inactive) | 2.56 µM (inactive) | 2.65 µM (inactive) | 6.31 µM (inactive) | – | 0.875 µM (active) | 5.89 µM (inactive) | 2.79 µM (inactive) |
| CC(=O)O[C@H]1C(=O)[C@@]2(C)C(C(OC(=O)c3ccccc3)C3[C@@H](O)C(OC(=O)[C@@H](O)[C@H](NC(=O)c4ccccc4)c4ccc(C(F)(F)F)cc4)C(C)=C1C3(C)C)[C@]1(OC(C)=O)CO[C@@H]1C[C@@H]2O (stereo partly drawn) | – | 9.1 µM (inactive) | > 25 µM (inactive) | – | > 25 µM (inactive) | 14.3 µM (inactive) | 9.98 µM (inactive) | > 25 µM (inactive) | > 25 µM (inactive) | > 25 µM (inactive) | 8.43 µM (inactive) | 8 µM (inactive) | 13.3 µM (inactive) | > 25 µM (inactive) | 18.1 µM (inactive) | – | 7.71 µM (inactive) | > 25 µM (inactive) |
| O=C(Cc1ccccc1)NN1C(=O)C(Cl)C1c1cc(Br)ccc1O (stereo not drawn) | – | 3.83 µM (inactive) | 2.65 µM (inactive) | 2.21 µM (inactive) | 3.87 µM (inactive) | 19.1 µM (inactive) | – | 3.94 µM (inactive) | 3.05 µM (inactive) | 10.4 µM (inactive) | 1.56 µM (inactive) | 4.11 µM (inactive) | 3.69 µM (inactive) | 1.29 µM (inactive) | 7.45 µM (inactive) | – | 10.4 µM (inactive) | 7.71 µM (inactive) |
